The values that follow come from US12215093B2, “Bicyclic carboxamides and methods of use thereof” (Tempest Therapeutics, Inc., priority 2018, dated 2025).

For one experiment, the target named is T1, EP4 (Homo sapiens, UniProt P35408).
T1 construct: host or cells: stably transfected HEK293 cells co-expressing a promiscuous G protein and a clytin variant
The experiment can be described thus: Functional calcium flux assay, EP4. In kind it is cell-based. The note with it: stably transfected HEK293 cells; PGE2 10 nM; read-out: EP4 Ca2+-flux assay IC50.

The next experiment concerns the target EP2 (Homo sapiens, UniProt P43116).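 Note: functional calcium flux assay in stably transfected HEK293 cells expressing EP2 coupled via a promiscuous G protein, clytin luminescence read as area under the curve, 30 min compound preincubation.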

Sequence of EP2 (P43116 whole entry): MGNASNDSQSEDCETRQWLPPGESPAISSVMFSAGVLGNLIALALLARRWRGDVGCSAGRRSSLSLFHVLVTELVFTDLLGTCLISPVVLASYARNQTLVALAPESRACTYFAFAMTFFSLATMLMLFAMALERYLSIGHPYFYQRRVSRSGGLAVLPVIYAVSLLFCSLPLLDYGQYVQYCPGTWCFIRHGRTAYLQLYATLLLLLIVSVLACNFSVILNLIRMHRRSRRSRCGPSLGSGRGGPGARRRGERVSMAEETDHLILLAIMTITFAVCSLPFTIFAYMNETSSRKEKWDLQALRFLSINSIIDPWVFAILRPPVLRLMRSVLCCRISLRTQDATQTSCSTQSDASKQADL
T1 sequence (P35408 whole entry): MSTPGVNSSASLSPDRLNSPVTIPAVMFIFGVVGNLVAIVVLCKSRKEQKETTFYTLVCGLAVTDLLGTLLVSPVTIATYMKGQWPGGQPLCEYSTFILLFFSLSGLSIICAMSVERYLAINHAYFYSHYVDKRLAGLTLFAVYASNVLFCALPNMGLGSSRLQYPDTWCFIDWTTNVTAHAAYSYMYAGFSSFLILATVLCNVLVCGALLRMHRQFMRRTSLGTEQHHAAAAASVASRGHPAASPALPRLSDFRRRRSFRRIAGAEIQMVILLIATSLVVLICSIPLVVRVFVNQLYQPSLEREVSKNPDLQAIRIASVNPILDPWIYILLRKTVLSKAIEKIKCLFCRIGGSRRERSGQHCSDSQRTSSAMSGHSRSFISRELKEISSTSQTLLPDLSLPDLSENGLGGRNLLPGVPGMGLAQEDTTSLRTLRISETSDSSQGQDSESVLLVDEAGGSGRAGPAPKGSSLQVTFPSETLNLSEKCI
Procedure for EP4: Each receptor subtype has an additional promiscuous G protein added in order to couple the aforementioned receptor to the calcium signaling pathway. The parental cell line used also expresses a novel variant of clytin, a calcium-activated photo-protein, to enable sensitive luminescent detection. Briefly, cells were plated at 50,000 cells-per-well in black, clear bottom 96-well plates. The plated cells were allowed to sit at room temperature for 30 min prior to transferring to a humidified, 37° C., 5% CO2 incubator for 18 to 24 h. Assay buffer (HBSS with 20 mM HEPES) and loading buffer (assay buffer plus 10 μM coelenterazine) were prepared on the day of the assay. Assays were performed by aspirating media from the assay plate and washing once with assay buffer, then replacing with loading buffer and allowing the cells to incubate for 1.5 h at room temperature. Compounds were prepared in assay buffer at a 3× final concentration in non-binding plates. Compounds were added to the cell plates and incubated for 30 min at room temperature. The prostanoid receptor ligand PGE2 was prepared at a 4× dilution ratio for a final concentration of 10 nM. Plates were run on a Flexstation™ using a 100 ms integration luminescence protocol for a total of 60 sec with ligand addition at 15 sec. Data were obtained from relative light units as measured by area under the curve.

For the molecule `O=C(O)CC1CC2(C1)CC(NC(=O)c1cc(Cl)cc3cnn(Cc4ccc(-c5ccccc5)c(F)c4)c13)C2` (centres unmarked) [Example 151, (Ra)-2-(6-(5-Chloro-1-((2-fluoro-[1,1′-biphenyl]-4-yl)methyl)-1H-indazole-7-carboxamido)spiro[3.3]heptan-2-yl)acetic acid], the IC50 (usually the concentration needed to halve the response being measured) at EP4 is less than 1 nM; at EP2 it was less than 25 nM.
As for `CN(C)c1cc(-c2ccc(Cn3ccc4c(F)ccc(C(=O)NC5CC6(C5)CC(C(=O)O)C6)c43)cc2)ccn1` (centres unmarked) [Example 22, 6-(1-(4-(2-(dimethylamino)pyridin-4-yl)benzyl)-4-fluoro-1H-indole-7-carboxamido)spiro[3.3]heptane-2-carboxylic acid], the IC50 is less than 1 nM at EP4 and 78 nM on EP2.
With `CCOc1ccc(-c2ccc(Cn3ccc4c(OC)ncc(C(=O)NC5CC6(C5)CC(C(=O)O)C6)c43)cc2)cn1` (centres unmarked) [Example 91, (Sa)-6-(1-(4-(6-ethoxypyridin-3-yl)benzyl)-4-methoxy-1H-pyrrolo[3,2-c]pyridine-7-carboxamido)spiro[3.3]heptane-2-carboxylic acid], the IC50 at EP4 is less than 1 nM; against EP2 it was 59 nM.
Taken in the same sequence, the figures for `COc1ccc(-c2ccc(Cn3ccc4c(F)ccc(C(=O)NC5CC6(CC(CC(=O)O)C6)C5)c43)cc2)cn1` (centres unmarked) [Example 138, (Ra)-2-(6-(4-Fluoro-1-(4-(6-methoxypyridin-3-yl)benzyl)-1H-indole-7-carboxamido)spiro[3.3]heptan-2-yl)acetic acid] were less than 1 nM and 25 nM.
In the case of `CCOc1cccc(-c2ccc(C(C)n3ncc4c(Cl)ccc(C(=O)NC5CC6(C5)CC(C(=O)O)C6)c43)cc2)n1` (racemic) [Example 134, (Sa)-6-(4-chloro-1-((racemic)-1-(4-(6-ethoxypyridin-2-yl)phenyl)-ethyl)-1H-indazole-7-carboxamido)spiro[3.3]heptane-2-carboxylic acid], the figures for the IC50 on EP4 and against EP2 were 1.3 nM and less than 25 nM, respectively.
Take `O=C(NC1CC2(C1)CC(C(=O)O)C2)c1ccc(F)c2ccn(Cc3ccc4ccc(Br)cc4c3)c12` (centres unmarked) [Example 44, (Sa)-6-(1-((7-bromonaphthalen-2-yl)methyl)-4-fluoro-1H-indole-7-carboxamido)spiro[3.3]heptane-2-carboxylic acid]: the IC50 on EP4 was less than 1 nM; on EP2, 30 nM.
For the molecule `CCNC(=O)c1cc(-c2ccc(Cn3ccc4c(F)ccc(C(=O)NC5CC6(C5)CC(C(=O)O)C6)c43)cc2)ccn1` (centres unmarked) [Example 61, (Sa)-6-(1-(4-(2-(ethylcarbamoyl)pyridin-4-yl)benzyl)-4-fluoro-1H-indole-7-carboxamido)spiro[3.3]heptane-2-carboxylic acid], the IC50 at EP4 was less than 1 nM; against EP2, less than 25 nM.
Taken in the same sequence, the figures for `COc1cc(-c2ccc(Cn3ncc4cc(Cl)cc(C(=O)NC5CC6(C5)CC(C(=O)O)C6)c43)cc2F)ccn1` (centres unmarked) [Example 154, (Sa)-6-(5-Chloro-1-(3-fluoro-4-(2-methoxypyridin-4-yl)benzyl)-1H-indazole-7-carboxamido)spiro[3.3]heptane-2-carboxylic acid] were 2.8 nM and less than 25 nM.
With `CC(c1ccc(-c2ccccc2)cc1)n1ccc2c(F)ccc(C(=O)NC3CC4(C3)CC(C(=O)O)C4)c21` (racemic) [Example 116, (S)-6-(1-(racemic)-1-([1,1′-biphenyl]-4-yl)-ethyl)-4-fluoro-1H-indole-7-carboxamido)spiro[3.3]heptane-2-carboxylic acid], the IC50 is 2.8 nM on EP4 and less than 25 nM against EP2.
Regarding `COc1cccc(-c2ccc(Cn3ncc4c(Cl)ccc(C(=O)NC5CC6(CC(CC(=O)O)C6)C5)c43)cc2)n1` [Example 149, (R)-2-(6-(4-Chloro-1-(4-(6-methoxypyridin-2-yl)benzyl)-1H-indazole-7-carboxamido)spiro[3.3]heptan-2-yl)acetic acid], the IC50 on EP4 is less than 1 nM; against EP2, 38 nM.
Taken in the same sequence, the figures for `COc1cccc(-c2ccc(C(C)n3ccc4c(F)ccc(C(=O)NC5CC6(C5)CC(C(=O)O)C6)c43)cc2)c1` (racemic) [Example 117, (Sa)-6-(4-fluoro-1-((racemic)-1-(3′-methoxy-[1,1′-biphenyl]-4-yl)-ethyl)-1H-indole-7-carboxamido)spiro[3.3]heptane-2-carboxylic acid] were 14 nM and 87 nM.
Take `COc1ccc2cc(Cn3ncc4c(Cl)ccc(C(=O)N[C@H]5CC6(C5)C[C@H](C(=O)O)C6)c43)ccc2n1` (some centres unmarked) [Example 175, (Sa)-6-(4-Chloro-1-((2-methoxyquinolin-6-yl)methyl)-1H-indazole-7-carboxamido)spiro[3.3]heptane-2-carboxylic acid]: the 50% inhibitory concentration (IC50) was 5.6 nM at EP4 and less than 25 nM on EP2.
On to `O=C(O)CC1CC2(C1)CC(NC(=O)c1ccc(Cl)c3cnn(Cc4ccc(-c5ccccc5F)cc4)c13)C2` (centres unmarked) [Example 143, (Ra)-2-(6-(4-Chloro-1-((2′-fluoro-[1,1′-biphenyl]-4-yl)methyl)-1H-indazole-7-carboxamido)spiro[3.3]heptan-2-yl)acetic acid], for which the IC50 at EP4 is less than 1 nM; at EP2, 35 nM.
Consider `CCOc1cc(-c2ccc(C(C)n3ncc4c(Cl)ccc(C(=O)NC5CC6(C5)CC(C(=O)O)C6)c43)cc2)ccn1` (racemic) [Example 124, (Sa)-6-(4-chloro-1-((racemic)-1-(4-(2-ethoxypyridin-4-yl)phenyl)-ethyl)-1H-indazole-7-carboxamido)spiro[3.3]heptane-2-carboxylic acid], for which the IC50 at EP4 was 3.9 nM; at EP2 it was less than 25 nM.
Take `O=C(NC1CC2(C1)CC(C(=O)O)C2)c1ccc(F)c2ccn(Cc3ccc(-c4cccc(OC5COC5)c4)cc3)c12` (centres unmarked) [Example 57, (Sa)-6-(4-fluoro-1-((3′-(oxetane-3-yloxy)-[1,1′-biphenyl]-4-yl)methyl)-1H-indole-7-carboxamido)spiro[3.3]heptane-2-carboxylic acid]: the IC50 at EP4 is less than 1 nM; at EP2 it was 99 nM.
On to `COc1ccc2cc(-c3ccc(Cn4ncc5cc(Cl)cc(C(=O)NC6CC7(CC(CC(=O)O)C7)C6)c54)cc3)ccc2n1` (centres unmarked) [Example 147, (Ra)-2-(6-(5-Chloro-1-(4-(2-methoxyquinolin-6-yl)benzyl)-1H-indazole-7-carboxamido)spiro[3.3]heptan-2-yl)acetic acid], for which the IC50 at EP4 was less than 1 nM; on EP2, less than 25 nM.
In the case of `O=C(NC1CC2(C1)CC(C(=O)O)C2)c1ccc(F)c2ccn(Cc3ccc4c(Br)cccc4c3)c12` (centres unmarked) [Example 43], the IC50 is less than 1 nM on EP4 and less than 25 nM at EP2.
Turning to `CCOc1cc(-c2ccc(C(C)n3ccc4c(F)ccc(C(=O)NC5CC6(C5)CC(C(=O)O)C6)c43)cc2)ccn1` (racemic) [Example 118, (Sa)-6-(1-((racemic)-1-(4-(2-ethoxypyridin-4-yl)phenyl)-ethyl)-4-fluoro-1H-indole-7-carboxamido)spiro[3.3]heptane-2-carboxylic acid], the values for the IC50 on EP4 and at EP2 were 2.6 nM and 31 nM, respectively.
Regarding `COc1cc(F)cc(-c2ccc(Cn3ccc4c(F)ccc(C(=O)NC5CC6(C5)CC(C(=O)O)C6)c43)cc2)c1` (centres unmarked) [Example 53, (Sa)-6-(4-fluoro-1-((3’-fluoro-5’-methoxy-[1,1′-biphenyl]-4-yl)methyl)-1H-indole-7-carboxamido)spiro[3.3]heptane-2-carboxylic acid], the IC50 at EP4 was less than 1 nM; on EP2, less than 25 nM.
